Test system: normal human lung fibroblasts, human bronchial epithelial cells, and human pulmonary alveolar epithelial cells
Test: Secreted protein expression after LPA induction, aptamer-based proteomic platform (SomaLogic, 1129 proteins)
Type: cell-based
Settings: 24 hours
Method: Changes in gene expression after 3 hours of LPA induction were profiled on Affymetrix Human Gene ST 2.0 microarrays; differentially expressed genes identified by ANOVA with FDR <0.05 and fold-change >1.2. Process networks associated with differentially expressed genes were defined using MetaCore. Changes in secreted protein expression after 24 hours of LPA induction were profiled on an aptamer-based proteomic platform (1129 proteins); differentially expressed proteins identified by t-test.
Treatment of cells with LPA, isolation supernatant, analysis of secreted protein expression using soma panel was performed as follows: Supernatant was collected from in vitro cultures of normal human lung fibroblasts, human bronchial epithelial cells, and human pulmonary alveolar epithelial cells treated for 24 hours with LPA and/or LPAR1 inhibitor. Each treatment condition was assayed in triplicate. 1129 proteins were profiled using a broad aptamer-based proteomic platform (SomaLogic, Colo., US). Briefly, the technology uses DNA aptamers containing chemically modified nucleotides as highly specific protein binding reagents in a multiplexed assay that transforms the quantity of each targeted protein into a corresponding quantify of the aptamer. Protein quantities are then detected on a microarray platform and recorded as Relative Fluorescence Units (RFU).
In Tables 1-5 The differentially expressed secreted proteins set forth in Tables 1, 2, and 5 and the differentially expressed mRNAs set forth in Table 3 and 4 were identified by visual inspection of individual dot-plots.
For the gene and protein expression analysis primary fibroblasts (NHLF product #CC-2512 from Lonza group LTD) and primary epithelial cells (NHBE Product #CC-2540 from Lonza; HPAEpiC Product #3200 from Sciencell (USA, California)) were cultured as recommended by the manufacturer, except they were cultured on collagen coated plates. As part of the induction protocol cells were starved overnight in low (0.2 or 0.1% serum) or no serum (0%), prior to stimulation with LPA.

## lysophosphatidic acid [LPA]
  effect of LPA, 41 (EPB41): up
  effect of LPA, ADAM 9 (ADAM9): up
  effect of LPA, ALCAM (ALCAM): up
  effect of LPA, ANGL4 (ANGPTL4): up
  effect of LPA, AREG (AREG): up
  effect of LPA, ARTS1 (ERAP1): up
  effect of LPA, ASM3A (SMPDL3A): up
  effect of LPA, ATS1 (ADAMTS1): down
  effect of LPA, Activin A (INHBA): up
  effect of LPA, Aminoacylase-1 (ACY1): up
  effect of LPA, Angiogenin (ANG): up
  effect of LPA, Angiopoietin-1 (ANGPT1): up
  effect of LPA, Angiopoietin-2 (ANGPT2): down
  effect of LPA, Angiostatin (PLG): down
  effect of LPA, Apo E2 (APOE): down
  effect of LPA, Apo E3 (APOE): down
  effect of LPA, B7-H1 (CD274): up
  effect of LPA, BASI (BSG): up
  effect of LPA, BFL1 (BCL2A1): up
  effect of LPA, BGH3 (TGFBI): up
  effect of LPA, BGN (BGN): up
  effect of LPA, BSSP4 (PRSS22): up
  effect of LPA, Bone proteoglycan II (DCN): up
  effect of LPA, CAPG (CAPG): up
  effect of LPA, CATZ (CTSZ): up
  effect of LPA, CK2-A1:B (CSNK2A1 CSNK2B): up
  effect of LPA, COMMD7 (COMMD7): up
  effect of LPA, CRDL1 (CHRDL1): up
  effect of LPA, CTAP-III (PPBP): up
  effect of LPA, Caspase-3 (CASP3): up
  effect of LPA, Cathepsin A (CTSA): up
  effect of LPA, Cathepsin H (CTSH): up
  effect of LPA, Cathepsin S (CTSS): up
  effect of LPA, Cathepsin V (CTSL2): up
  effect of LPA, Coagulation Factor Xa (F10): down
  effect of LPA, Cofilin-1 (CFL1): up
  effect of LPA, Cyclophilin A (PPIA): up
  effect of LPA, Cystatin M (CST6): up
  effect of LPA, DAF (CD55): up
  effect of LPA, DBNL (DBNL): up
  effect of LPA, DERM (DPT): down
  effect of LPA, DKK1 (DKK1): up
  effect of LPA, DKK3 (DKK3): up
  effect of LPA, DPP2 (DPP7): up
  effect of LPA, DcR3 (TNFRSF6B): up
  effect of LPA, Discoidin domain receptor 2 (DDR2): up
  effect of LPA, Dkk-4 (DKK4): up
  effect of LPA, EMR2 (EMR2): up
  effect of LPA, ENA-78 (CXCL5): up
  effect of LPA, EPHA3 (EPHA3): up
  effect of LPA, EPI (EREG): up
  effect of LPA, Elafin (PI3): up
  effect of LPA, Endocan (ESM1): up
  effect of LPA, Endothelin-converting enzyme 1 (ECE1): up
  effect of LPA, Eotaxin (CCL11): up
  effect of LPA, EphB4 (EPHB4): up
  effect of LPA, Ephrin-A5 (EFNA5): up
  effect of LPA, Ephrin-B3 (EFNB3): up
  effect of LPA, Epithelial cell kinase (EPHA2): up
  effect of LPA, FCAR (FCAR): down
  effect of LPA, FGF7 (FGF7): up
  effect of LPA, FGF-18 (FGF18): down
  effect of LPA, FGF-20 (FGF20): up
  effect of LPA, FST (FST): up
  effect of LPA, FSTL3 (FSTL3): up
  effect of LPA, Flt-3 (FLT3): up
  effect of LPA, G-CSF (CSF3): up
  effect of LPA, GAPDH liver (GAPDH): up
  effect of LPA, GCP-2 (CXCL6): up
  effect of LPA, GDF-9 (GDF9): down
  effect of LPA, GREM1 (GREM1): up
  effect of LPA, GRN (GRN): up
  effect of LPA, GV (PLA2G5): up
  effect of LPA, Galectin-3 (LGALS3): up
  effect of LPA, Gro-a (CXCL1): up
  effect of LPA, Gro-b/g (CXCL3 CXCL2): up
  effect of LPA, HGF (HGF): up
  effect of LPA, IDE (IDE): up
  effect of LPA, IGF-I sR (IGF1R): up
  effect of LPA, IGF-II receptor (IGF2R): up
  effect of LPA, IGFBP-2 (IGFBP2): down
  effect of LPA, IGFBP-3 (IGFBP3): up
  effect of LPA, IGFBP-7 (IGFBP7): up
  effect of LPA, IL-1 R4 (IL1RL1): up
  effect of LPA, IL-6 (IL6): up
  effect of LPA, IL-6 sRa (IL6R): up
  effect of LPA, IL-8 (IL8): up
  effect of LPA, IL-11 (IL11): up
  effect of LPA, IL-12 RB2 (IL12RB2): up
  effect of LPA, IL-17D (IL17D): up
  effect of LPA, IP-10 (CXCL10): up
  effect of LPA, JAG1 (JAG1): up
  effect of LPA, JAG2 (JAG2): up
  effect of LPA, KPCI (PRKCI): up
  effect of LPA, LG3BP (LGALS3BP): up
  effect of LPA, LGMN (LGMN): up
  effect of LPA, LRIG3 (LRIG3): up
  effect of LPA, Layilin (LAYN): up
  effect of LPA, MCP-1 (CCL2): up
  effect of LPA, MCP-3 (CCL7): up
  effect of LPA, MICA (MICA): up
  effect of LPA, MICB (MICB): up
  effect of LPA, MIP-3a (CCL20): up
  effect of LPA, MMP-1 (MMP1): up
  effect of LPA, MMP-3 (MMP3): up
  effect of LPA, MMP-9 (MMP9): up
  effect of LPA, MMP-10 (MMP10): up
  effect of LPA, MMP-12 (MMP12): up
  effect of LPA, MMP-13 (MMP13): up
  effect of LPA, MRC2 (MRC2): up
  effect of LPA, Met (MET): up
  effect of LPA, Midkine (MDK): up
  effect of LPA, NAGK (NAGK): up
  effect of LPA, NAP-2 (PPBP): up
  effect of LPA, NCAM-L1 (L1CAM): up
  effect of LPA, NET4 (NTN4): up
  effect of LPA, NID2 (NID2): up
  effect of LPA, NKp46 (NCR1): up
  effect of LPA, NRP1 (NRP1): up
  effect of LPA, NRX3B (NRXN3): up
  effect of LPA, NXPH1 (NXPH1): up
  effect of LPA, Neurotrophin-3 (NTF3): up
  effect of LPA, Nogo Receptor (RTN4R): up
  effect of LPA, NovH (NOV): up
  effect of LPA, OMD (OMD): up
  effect of LPA, ON (SPARC): up
  effect of LPA, PAI-1 (SERPINE1): up
  effect of LPA, PARK7 (PARK7): up
  effect of LPA, PCSK7 (PCSK7): up
  effect of LPA, PDGF-AA (PDGFA): up
  effect of LPA, PDGF-BB (PDGFB): up
  effect of LPA, PTHrP (PTHLH): up
  effect of LPA, Protease nexin I (SERPINE2): up
  effect of LPA, RAC1 (RAC1): up
  effect of LPA, RANTES (CCL5): up
  effect of LPA, RAP (LRPAP1): up
  effect of LPA, RGMB (RGMB): up
  effect of LPA, ROBO2 (ROBO2): up
  effect of LPA, SARP-2 (SFRP1): up
  effect of LPA, SCGF-alpha (CLEC11A): up
  effect of LPA, SDF-1 (CXCL12): up
  effect of LPA, SLIK5 (SLITRK5): up
  effect of LPA, ST4S6 (CHST15): up
  effect of LPA, Semaphorin 3A (SEMA3A): up
  effect of LPA, Sphingosine kinase 1 (SPHK1): up
  effect of LPA, Spondin-1 (SPON1): down
  effect of LPA, TAJ (TNFRSF19): up
  effect of LPA, TFPI (TFPI): up
  effect of LPA, TGF-b R III (TGFBR3): up
  effect of LPA, TIG2 (RARRES2): up
  effect of LPA, TIMP-3 (TIMP3): up
  effect of LPA, TNF sR-I (TNFRSF1A): up
  effect of LPA, TNF sR-II (TNFRSF1B): up
  effect of LPA, TNFSF15 (TNFSF15): up
  effect of LPA, TSG-6 (TNFAIP6): up
  effect of LPA, TSLP (TSLP): up
  effect of LPA, TSP2 (THBS2): up
  effect of LPA, TWEAK (TNFSF12): down
  effect of LPA, TXD12 (TXNDC12): up
  effect of LPA, Thrombospondin-1 (THBS1): up
  effect of LPA, TrATPase (ACP5): down
  effect of LPA, UNC5H3 (UNC5C): up
  effect of LPA, URB (CCDC80): up
  effect of LPA, VEGF121 (VEGFA): up
  effect of LPA, VEGF (VEGFA): up
  effect of LPA, VEGF-C (VEGFC): up
  effect of LPA, WKFN1 (GPRASP2): down
  effect of LPA, annexin I (ANXA1): up
  effect of LPA, discoidin domain receptor 1 (DDR1): up
  effect of LPA, eIF-5A-1 (EIF5A): down
  effect of LPA, sFRP-3 (FRZB): down
  effect of LPA, suPAR (PLAUR): up
  effect of LPA, uPA (PLAU): up

— US20170314074A1, “LPA-ASSOCIATED PROTEIN AND RNA EXPRESSION” (Intermune, Inc., priority 2014, published 2017)
